Data taken from ChEMBL document CHEMBL1201862, “PubChem BioAssay data set” (2004).
“And” between values parts separate entries of the source, which are not always exact repeats. Identical values can stand only once. The source made the active and inactive calls.

Key:
[1] = target: Cytochrome P450 3A4 (Homo sapiens, UniProt P08684);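 note: CYP3A4 tested as one member of a cytochrome P450 panel screen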
[2] = system: Streptococcus; assay: GAS UMAA2166 growth inhibition – luminescence, BacTiterGlo, counter-screen for streptokinase expression inhibitor project, dose response (AID 1915); format: functional, organism-based;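 note: potency for reduction of bacterial viability or growth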
[3] = system: Streptococcus sp. 'group A'; assay: Streptococcus pyogenes SK(-)GAS viability under kanamycin – luminescence, BacTiterGlo, confirmation, counter-screen for streptokinase expression inhibitor project, dose response (AID 1900); format: functional, organism-based
[4] = target: T1, Streptokinase A (Streptococcus pyogenes serotype M1, UniProt P10520); assay: viability-normalized secreted streptokinase activity reduction – plasminogen activation absorbance, OD405, dose response (AID 1914); format: functional, Streptococcus pyogenes M1 GAS;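 note: secreted streptokinase activity via plasminogen activation per viability signal from cell pellet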
T1 sequence (P10520 whole entry): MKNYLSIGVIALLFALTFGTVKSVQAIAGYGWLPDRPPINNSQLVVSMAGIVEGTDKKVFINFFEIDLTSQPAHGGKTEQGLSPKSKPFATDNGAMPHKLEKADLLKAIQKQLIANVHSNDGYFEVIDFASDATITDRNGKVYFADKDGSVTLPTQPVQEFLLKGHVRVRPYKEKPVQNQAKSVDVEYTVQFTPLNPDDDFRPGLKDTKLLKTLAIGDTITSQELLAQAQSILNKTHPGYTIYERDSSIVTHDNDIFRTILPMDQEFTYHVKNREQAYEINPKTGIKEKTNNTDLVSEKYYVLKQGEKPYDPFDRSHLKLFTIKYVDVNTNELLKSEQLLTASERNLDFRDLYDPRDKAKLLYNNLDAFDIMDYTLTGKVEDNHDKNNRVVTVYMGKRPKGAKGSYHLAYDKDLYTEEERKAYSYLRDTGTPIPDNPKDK

[5] = Trypanosoma cruzi growth suppression in host cells – NIH3T3 host cells, beta-gal luminescence, confirmation (AID 2044); format: functional, cell-based;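 note: intracellular parasites grown in NIH/3T3 mouse fibroblasts as host cells; luminescent beta-galactosidase reporter signal from transgenic T. cruzi replicating inside host cells; inhibitors lower the luminescence signal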
[6] = NIH3T3 cell viability loss – ATP luminescence, mouse fibroblasts, counter-screen, dose response (AID 2010); format: functional, cell-based;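 note: cells exposed to compound for about 90 hours before reading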
[7] = target: Cytochrome P450 2C19 (Homo sapiens, UniProt P33261); assay: Cytochrome panel assay with activity outcomes. Panel member name: p450-cyp2c19 Compounds with AC50 equal or less than 10 uM are considered active; format: functional
[8] = target: Cytochrome P450 2C9 (Homo sapiens, UniProt P11712)
[9] = target: T2, Corticotropin-releasing factor receptor 2/Corticotropin-releasing factor-binding protein (Homo sapiens, UniProt P24387+Q13324); assay: activators of CRF receptor 2 with binding protein – uHTS hits, confirmation (AID 602473); format: functional; conditions: read-out: EC50_Mean
T2 sequence (Q13324 whole entry): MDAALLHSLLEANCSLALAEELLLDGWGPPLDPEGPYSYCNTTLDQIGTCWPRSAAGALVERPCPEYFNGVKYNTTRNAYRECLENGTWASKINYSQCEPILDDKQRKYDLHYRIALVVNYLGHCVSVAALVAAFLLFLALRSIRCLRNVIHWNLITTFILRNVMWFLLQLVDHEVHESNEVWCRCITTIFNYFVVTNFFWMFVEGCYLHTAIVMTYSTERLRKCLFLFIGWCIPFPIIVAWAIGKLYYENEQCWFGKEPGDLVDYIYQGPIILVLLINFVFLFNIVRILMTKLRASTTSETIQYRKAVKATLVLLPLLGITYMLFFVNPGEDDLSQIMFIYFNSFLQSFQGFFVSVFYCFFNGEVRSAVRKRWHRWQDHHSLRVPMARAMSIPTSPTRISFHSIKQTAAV
T2 sequence (P24387 whole entry): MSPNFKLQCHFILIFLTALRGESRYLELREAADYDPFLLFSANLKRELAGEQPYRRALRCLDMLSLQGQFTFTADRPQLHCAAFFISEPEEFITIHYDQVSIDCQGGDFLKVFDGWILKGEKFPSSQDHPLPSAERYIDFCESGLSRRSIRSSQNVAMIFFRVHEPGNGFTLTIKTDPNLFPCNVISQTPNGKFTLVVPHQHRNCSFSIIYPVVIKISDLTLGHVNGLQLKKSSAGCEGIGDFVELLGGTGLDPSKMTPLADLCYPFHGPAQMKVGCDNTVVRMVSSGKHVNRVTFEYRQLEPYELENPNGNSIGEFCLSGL

Sequence of Cytochrome P450 3A4 (P08684 whole entry): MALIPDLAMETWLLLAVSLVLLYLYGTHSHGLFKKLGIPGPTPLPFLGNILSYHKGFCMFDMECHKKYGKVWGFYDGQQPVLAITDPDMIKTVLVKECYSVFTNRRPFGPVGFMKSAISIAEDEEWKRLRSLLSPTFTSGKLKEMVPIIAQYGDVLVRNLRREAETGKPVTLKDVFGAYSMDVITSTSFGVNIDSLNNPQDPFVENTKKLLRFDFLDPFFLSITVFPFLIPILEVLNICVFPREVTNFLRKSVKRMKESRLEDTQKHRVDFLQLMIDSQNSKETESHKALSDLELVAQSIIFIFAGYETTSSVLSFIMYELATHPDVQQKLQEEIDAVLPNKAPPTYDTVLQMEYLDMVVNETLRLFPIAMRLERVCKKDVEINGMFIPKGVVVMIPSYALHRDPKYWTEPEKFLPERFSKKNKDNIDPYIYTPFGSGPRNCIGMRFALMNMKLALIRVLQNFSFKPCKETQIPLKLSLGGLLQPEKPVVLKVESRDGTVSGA
Sequence of Cytochrome P450 2C19 (P33261 whole entry): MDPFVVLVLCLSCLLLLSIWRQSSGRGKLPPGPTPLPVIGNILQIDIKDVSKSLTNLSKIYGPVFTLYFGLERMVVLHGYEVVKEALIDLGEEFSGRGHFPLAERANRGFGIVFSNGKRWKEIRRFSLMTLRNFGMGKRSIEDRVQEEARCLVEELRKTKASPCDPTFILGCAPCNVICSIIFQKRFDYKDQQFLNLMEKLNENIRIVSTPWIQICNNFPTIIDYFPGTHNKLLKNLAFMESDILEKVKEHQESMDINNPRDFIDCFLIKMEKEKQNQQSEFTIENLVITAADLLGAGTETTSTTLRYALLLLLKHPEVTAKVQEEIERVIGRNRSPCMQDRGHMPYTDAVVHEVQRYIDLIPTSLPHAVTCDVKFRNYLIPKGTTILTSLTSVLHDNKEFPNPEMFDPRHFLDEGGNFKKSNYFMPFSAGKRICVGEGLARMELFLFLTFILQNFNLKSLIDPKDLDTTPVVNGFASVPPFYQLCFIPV
Sequence of Cytochrome P450 2C9 (P11712 whole entry): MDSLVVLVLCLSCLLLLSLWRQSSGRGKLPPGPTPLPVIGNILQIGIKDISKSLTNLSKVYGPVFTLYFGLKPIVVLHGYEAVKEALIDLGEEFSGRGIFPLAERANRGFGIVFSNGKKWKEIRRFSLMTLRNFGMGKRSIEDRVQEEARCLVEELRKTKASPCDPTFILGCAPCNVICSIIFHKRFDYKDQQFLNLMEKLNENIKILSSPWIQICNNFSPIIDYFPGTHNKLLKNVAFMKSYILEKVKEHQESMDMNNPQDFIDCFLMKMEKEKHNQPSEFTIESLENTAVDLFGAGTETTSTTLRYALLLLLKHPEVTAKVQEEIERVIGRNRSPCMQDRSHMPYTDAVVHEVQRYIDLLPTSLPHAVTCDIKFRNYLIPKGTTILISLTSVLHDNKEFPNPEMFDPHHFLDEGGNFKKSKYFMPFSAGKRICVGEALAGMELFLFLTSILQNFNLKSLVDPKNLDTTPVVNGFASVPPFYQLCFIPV

**Q.** With `Cc1cccc(N(CC(=O)NCCSCc2ccco2)S(=O)(=O)c2ccccc2)c1` as the compound, how does the AC50 [1] read?
**A.** Its AC50 is 3.55 µM (inconclusive).

**Q.** Which AC50 [1] does the source give for `CCC1=NN(C(=O)CCc2ccccc2)C(O)(C(F)(F)F)C1` (configuration not stated) here?
**A.** Its AC50 is 15.8 µM (inconclusive).

**Q.** For `CCOc1ccc(C(=O)NC(=S)Nc2ccc(NC(=O)CC)cc2)cc1[N+](=O)[O-]`, which EC50 [2] is on record?
**A.** Its EC50 is 64.4 µM (active).

**Q.** What about the EC50 [3] of the same compound?
**A.** The EC50 was 4.28 µM (active).

**Q.** What about the EC50 [4] of the same compound?
**A.** Its EC50 is > 150 µM (not active).

**Q.** Which results are given for `Cc1cc(C)c2cc(CN(Cc3cccnc3)C(=O)c3ccc(F)cc3)c(Cl)nc2c1`?
**A.** EC50 [5]: 1.08 µM (active); EC50 [6]: 5.07 µM (active)

**Q.** For `C=C1C(O)(c2ccccc2)C2CC[N+]1(C)CC2.[Cl-]` (configuration not stated), which AC50 [7] is on record?
**A.** The AC50 was “inconclusive”.

**Q.** And the AC50 [1]?
**A.** Its AC50 is 3.16 µM (inconclusive).

**Q.** With `CC(C)OCCCN1C(=O)c2ccccc2C1C(=O)NC1CCCCC1` (configuration not stated) as the compound, how does the AC50 [8] read?
**A.** The AC50 was 7.08 µM (inconclusive).

**Q.** What about the AC50 ([7]; read-out: AC50) of the same compound?
**A.** The AC50 was 35.5 µM (inconclusive).

**Q.** With `CCCCCCNC=C1C(=O)N(C)C(=O)N(C)C1=O` as the compound, how does the AC50 [8] read?
**A.** The AC50 was 14.1 µM (inconclusive).

**Q.** What about the AC50 ([7]; read-out: AC50) of the same compound?
**A.** The AC50 was 15.8 µM (inconclusive).

**Q.** With `CCn1c(SCC(=O)NC2CCCc3ccccc32)nnc1-c1cccs1` (configuration not stated) as the compound, how does the AC50 [8] read?
**A.** Its AC50 is 4.47 µM (inconclusive).

**Q.** What does the source list for `COc1ccc(CCn2c(-c3cc([N+](=O)[O-])cc([N+](=O)[O-])c3)nc3nc4ccccc4nc32)cc1`?
**A.** EC50 [5]: 0.157 µM (active); EC50 [6]: > 60 µM (not active)

**Q.** With `O=c1c(-c2ccc(F)cc2)nc2cnc(N3CCNCC3)nc2n1-c1ccccc1` as the compound, how does the AC50 [7] read?
**A.** Its AC50 is “inconclusive”.

**Q.** And the AC50 [1]?
**A.** The AC50 was 25.1 µM (inconclusive).

**Q.** With `COc1ccc(-c2csc3ncnc(N4CCN(S(=O)(=O)c5cccc(Br)c5)CC4)c23)cc1` as the compound, how does the EC50 [5] read?
**A.** The EC50 was 1.71 µM (active).

**Q.** What about the EC50 [6] of the same compound?
**A.** Its EC50 is > 60 µM (not active).

**Q.** With `O=C(Nc1cccc(-c2cnc3ccccc3n2)c1)c1ccc(Cl)cc1` as the compound, how does the AC50 [8] read?
**A.** Its AC50 is 1.78 µM (inconclusive).

**Q.** And the AC50 [1]?
**A.** The AC50 was 3.55 µM (inconclusive).

**Q.** Which results are given for `Nc1nc(-c2cccs2)cs1`?
**A.** AC50 ([7]; read-out: AC50): 3.98 µM (inconclusive) and 39.8 µM (inconclusive); AC50 [1]: 3.98 µM (inconclusive) and 25.1 µM (inconclusive)

**Q.** For `Cc1cc(C)c(C#N)c(SCC(=O)C(C)(C)C)n1`, which EC50 [5] is on record?
**A.** Its EC50 is 1.96 µM (active).

**Q.** What about the EC50 [6] of the same compound?
**A.** Its EC50 is > 60 µM (not active).

**Q.** Which AC50 ([7]; read-out: AC50) does the source give for `CCOc1ccc(CNC(=O)C2CC(=O)N(C3CCCC3)C2)cc1OC` (configuration not stated) here?
**A.** Its AC50 is 39.8 µM (inconclusive).

**Q.** What about the AC50 [1] of the same compound?
**A.** The AC50 was 25.1 µM (inconclusive).

**Q.** Which AC50 [1] does the source give for `Cc1nc2ncnn2c(C)c1CCC(=O)Nc1ccc(S(=O)(=O)N2CCCCCC2)cc1` here?
**A.** Its AC50 is 39.8 µM (inconclusive).

**Q.** What does the source list for `COc1ccc([C@H]2/C=C\CN(S(=O)(=O)c3ccc4ccccc4c3)[C@@H](C)C(=O)N2Cc2ccc(F)cc2)cc1`?
**A.** EC50 [5]: 2.03 µM (active); EC50 [6]: > 60 µM (not active)

**Q.** For `COc1ccc(-c2nc3cnc(OCc4ccccc4)nc3n(CCC#N)c2=O)cc1`, which AC50 [1] is on record?
**A.** The AC50 was 10 µM (inconclusive).

**Q.** Which AC50 ([7]; read-out: AC50) does the source give for `C/C(=N/O)c1ccc2cc(Br)c3ccccc3c2c1` here?
**A.** The AC50 was 1 µM (inconclusive).

**Q.** Which AC50 [8] does the source give for `CCOC(=O)c1cc2c(=O)n3ccccc3nc2n(CCCOC)/c1=N\C(C)=O` here?
**A.** Its AC50 is 20 µM (inconclusive).

**Q.** Which AC50 [1] does the source give for `CC(NC(=O)C1(C)CC1(Br)Br)C(C)(C)C` (configuration not stated) here?
**A.** The AC50 was 14.1 µM (inconclusive).

**Q.** For `COc1ccc(-c2nnc3n2N=C(C)CS3)cc1`, which AC50 [8] is on record?
**A.** Its AC50 is 20 µM (inconclusive).

**Q.** And the AC50 ([7]; read-out: AC50)?
**A.** Its AC50 is 25.1 µM (inconclusive).

**Q.** For `O=C(O)CNC1=NC2(CCCC2)Cc2ccccc21`, which AC50 [7] is on record?
**A.** The AC50 was “inconclusive”.

**Q.** Which EC50 [9] does the source give for `Cc1ccc2[nH]c(C(=O)N/N=C/c3ccccc3C(=O)O)c(-c3ccccc3)c2c1` here?
**A.** Its EC50 is 5.26 µM (active).

**Q.** With `Cc1ccccc1/C=N\NC(=O)c1csnn1` as the compound, how does the AC50 ([7]; read-out: AC50) read?
**A.** The AC50 was 11.2 µM (inconclusive).

**Q.** With `c1ccc2sc(C3(N4CCCCC4)CCCCC3)cc2c1` as the compound, how does the AC50 [1] read?
**A.** Its AC50 is 15.8 µM (inconclusive) and 25.1 µM (inconclusive).

**Q.** With `NC[C@H](O)c1cc(O)c(O)cc1F` as the compound, how does the AC50 [1] read?
**A.** The AC50 was 31.6 µM (inconclusive).
